Experimental data as given in US8629143B2, “Potassium channel modulators” (AbbVie Inc., priority 2009, dated 2014).

Target: T1, KCNQ 2/3 channels (HEK293 cells stably expressing human KCNQ2 and KCNQ3 subunits) (Homo sapiens, UniProt O43525+O43526)
T1 construct: expressed in transfected cells; host or cells: HEK293
Assay: KCNQ2/3 channel activation, thallium flux FLIPR assay with BTC-AM dye
Format: cell-based
Conditions: for Emax: HEK293, maximum response relative to the response produced by 10 μM retigabine (set at 100%), read-out: Max. %; for EC50: HEK293 cells expressing human KCNQ2 and KCNQ3, thallium flux, FLIPR
Outline: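 HEK293 cells stably expressing human KCNQ2/KCNQ3 were loaded with BTC-AM (3 μg/mL, 2 h, RT) and preincubated with compound for 4 min in pH 7.3 gluconate buffer containing 0.1 mM ouabain. Flux was triggered by 6 mM TlNO3/10 mM K2SO4 and read for 3 min; EC50 came from summed responses over basal, with maximum relative to 10 μM retigabine (100%).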

Row | SMILES | Emax [%] | EC50 [nM]
1 | Cc1ccc(-c2nn(NC(=O)Cc3cc(F)cc(F)c3)c(=O)c3ccccc23)cc1C [Example 166, 2-(3,5-difluorophenyl)-N-[4-(3,4-dimethylphenyl)-1-oxophthalazin-2(1H)-yl]acetamide] | 161 | 100 to 500
2 | CC(C)c1ccc(-c2nn(NC(=O)Cc3ccc(Cl)cc3)c(=O)c3ccccc23)cc1 [Example 170, 2-(4-chlorophenyl)-N-[4-(4-isopropylphenyl)-1-oxophthalazin-2(1H)-yl]acetamide] | 104 | 500 to 1000
3 | CC(C)c1ccc(-c2nn(NC(=O)Cc3cc(F)cc(F)c3)c(=O)c3ccccc23)cc1 [Example 171, 2-(3,5-difluorophenyl)-N-[4-(4-isopropylphenyl)-1-oxophthalazin-2(1H)-yl]acetamide] | 134 | 500 to 1000
4 | CC(C)c1nn(NC(=O)CC23CC4CC(CC(C4)C2)C3)c(=O)c2cc(C(F)(F)F)ccc12 [Example 173, 2-(adamantan-1-yl)-N-[4-isopropyl-1-oxo-7-(trifluoromethyl)phthalazin-2(1H)-yl]acetamide] | -12 | > 10000
5 | COc1ccc(-c2nn(NC(=O)CC34CC5CC(CC(C5)C3)C4)c(=O)c3cc(Br)ccc23)cc1 [Example 174, 2-(adamantan-1-yl)-N-[7-bromo-4-(4-methoxyphenyl)-1-oxophthalazin-2(1H)-yl]acetamide] | 20 | > 10000
6 | COc1ccc(-c2nn(NC(=O)CC34CC5CC(CC(C5)C3)C4)c(=O)c3ccc(Br)cc23)cc1 [Example 175, 2-(adamantan-1-yl)-N-[6-bromo-4-(4-methoxyphenyl)-1-oxophthalazin-2(1H)-yl]acetamide] | 13 | > 10000
7 | COc1ccc(-c2nn(NC(=O)Cc3cc(F)cc(F)c3)c(=O)c3cc(Br)ccc23)cc1 [Example 177, N-[7-bromo-4-(4-methoxyphenyl)-1-oxophthalazin-2(1H)-yl]-2-(3,5-difluorophenyl)acetamide] | 48 | > 10000
8 | O=C(CC12CC3CC(CC(F)(C3)C1)C2)Nn1nc(-c2ccccc2)c2ccsc2c1=O [Example 179, 2-(3-fluoroadamantan-1-yl)-N-(7-oxo-4-phenylthieno[2,3-d]pyridazin-6(7H)-yl)acetamide] | 169 | 500 to 1000
9 | O=C(CC12CC3CC(CC(O)(C3)C1)C2)Nn1nc(-c2ccccc2)c2ccsc2c1=O [Example 180, 2-(3-hydroxyadamantan-1-yl)-N-(7-oxo-4-phenylthieno[2,3-d]pyridazin-6(7H)-yl)acetamide] | -3 | > 10000
10 | O=C(CC12CC3CC(CC(C3)C1)C2)Nn1nc(-c2ccc(Cl)cc2)c2c(F)ccc(F)c2c1=O [Example 183, 2-(adamantan-1-yl)-N-[4-(4-chlorophenyl)-5,8-difluoro-1-oxophthalazin-2(1H)-yl]acetamide] | 178 | 100 to 500
11 | O=C(CC12CC3CC(CC(C3)C1)C2)Nn1nc(-c2ccccc2)c2c(c1=O)CCCC2 [Example 185, 2-(adamantan-1-yl)-N-(1-oxo-4-phenyl-5,6,7,8-tetrahydrophthalazin-2(1H)-yl)acetamide] | 144 | < 100
12 | O=C(Cc1ccc(Cl)cc1)Nn1nc(-c2ccccc2)c2c(c1=O)CCCC2 [Example 187, 2-(4-chlorophenyl)-N-(1-oxo-4-phenyl-5,6,7,8-tetrahydrophthalazin-2(1H)-yl)acetamide] | 123 | 100 to 500
13 | O=C(CC12CC3CC(CC(C3)C1)C2)Nn1nc(-c2ccccc2)c2c(c1=O)CCC2 [Example 189, 2-(adamantan-1-yl)-N-(1-oxo-4-phenyl-1,5,6,7-tetrahydro-2H-cyclopenta[d]pyridazin-2-yl)acetamide] | 152 | 100 to 500
14 | O=C(Cc1ccc(Cl)cc1)Nn1nc(-c2ccccc2)c2c(c1=O)CCC2 [Example 190, 2-(4-chlorophenyl)-N-(1-oxo-4-phenyl-1,5,6,7-tetrahydro-2H-cyclopenta[d]pyridazin-2-yl)acetamide] | 124 | 1000 to 10000
15 | CSCC(=O)Nn1nc(C(F)(F)F)c2ccccc2c1=O [Example 191, 2-(methylthio)-N-[1-oxo-4-(trifluoromethyl)phthalazin-2(1H)-yl]acetamide] | 25 | > 10000
16 | O=C(CSC12CC3CC(CC(C3)C1)C2)Nn1nc(-c2ccccc2)c2ccccc2c1=O [Example 193, 2-(adamantan-1-ylthio)-N-(1-oxo-4-phenylphthalazin-2(1H)-yl)acetamide] | 161 | 100 to 500
17 | O=C(Cc1ccc2c(c1)OCO2)Nn1nc(-c2ccc(Cl)cc2)c2ccccc2c1=O [Example 194, 2-(1,3-benzodioxol-5-yl)-N-[4-(4-chlorophenyl)-1-oxophthalazin-2(1H)-yl]acetamide] | 248 | 500 to 1000

Other lines, results leading:

Row | Emax [%] | EC50 [nM] | SMILES
18 | 139 | 100 to 500 | CC(C)c1ccc(-c2nn(NC(=O)CC34CC5CC(CC(C5)C3)C4)c(=O)c3ccccc23)cc1 [Example 169, 2-(adamantan-1-yl)-N-[4-(4-isopropylphenyl)-1-oxophthalazin-2(1H)-yl]acetamide]
19 | 33 | 100 to 500 | COc1ccc(-c2nn(NC(=O)Cc3cc(F)cc(F)c3)c(=O)c3ccc(Br)cc23)cc1 [Example 176, N-[6-bromo-4-(4-methoxyphenyl)-1-oxophthalazin-2(1H)-yl]-2-(3,5-difluorophenyl)acetamide]
20 | 56 | > 10000 | O=C(CC12CC3CC(CC(Br)(C3)C1)C2)Nn1nc(-c2ccccc2)c2ccsc2c1=O [Example 178, 2-(3-bromoadamantan-1-yl)-N-(7-oxo-4-phenylthieno[2,3-d]pyridazin-6(7H)-yl)acetamide]
21 | 166 | 100 to 500 | O=C(Cc1cc(F)cc(F)c1)Nn1nc(-c2ccc(Cl)cc2)c2c(F)ccc(F)c2c1=O [Example 181, N-[4-(4-chlorophenyl)-5,8-difluoro-1-oxophthalazin-2(1H)-yl]-2-(3,5-difluorophenyl)acetamide]
22 | 122 | 100 to 500 | O=C(Cc1ccc(Cl)cc1)Nn1nc(-c2ccc(Cl)cc2)c2c(F)ccc(F)c2c1=O [Example 182, 2-(4-chlorophenyl)-N-[4-(4-chlorophenyl)-5,8-difluoro-1-oxophthalazin-2(1H)-yl]acetamide]
23 | 136 | 100 to 500 | O=C(Cc1cc(F)cc(F)c1)Nn1nc(-c2ccccc2)c2c(c1=O)CCCC2 [Example 186, 2-(3,5-difluorophenyl)-N-(1-oxo-4-phenyl-5,6,7,8-tetrahydrophthalazin-2(1H)-yl)acetamide]
24 | 131 | 1000 to 10000 | O=C(Cc1cc(F)cc(F)c1)Nn1nc(-c2ccccc2)c2c(c1=O)CCC2 [Example 188, 2-(3,5-difluorophenyl)-N-(1-oxo-4-phenyl-1,5,6,7-tetrahydro-2H-cyclopenta[d]pyridazin-2-yl)acetamide]
25 | 155 | 100 to 500 | O=C(CSC12CC3CC(CC(C3)C1)C2)Nn1nc(C(F)(F)F)c2ccccc2c1=O [Example 192, 2-(adamantan-1-ylthio)-N-[1-oxo-4-(trifluoromethyl)phthalazin-2(1H)-yl]acetamide]
